# Results from article PMC5412877, “Discovery of a PCAF Bromodomain Chemical Probe” (Angewandte Chemie (International Ed. in English), 2016).
# “And” between values parts separate entries of the source, which are not always exact repeats. Identical values can stand only once. Like-named read-outs stand apart in the source and are kept apart here.
# Columns and labels:
# Type in all cases: binding
# [1] = molecular target: T1, PCAF Brd (Homo sapiens, UniProt Q92831); experiment: Differential scanning fluorimetry (DSF), PCAF Brd; conditions: compound concentration 10 μM
# T1 construct: Human bromodomains were cloned, expressed and purified as previously described; made in house
# T1 sequence (Q92831 723-827 limits assumed): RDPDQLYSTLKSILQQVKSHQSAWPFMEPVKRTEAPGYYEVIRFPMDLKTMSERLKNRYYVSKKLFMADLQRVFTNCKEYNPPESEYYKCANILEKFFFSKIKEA
# Experimental: (§1) Protein Expression and Purification
# (§2) Human bromodomains were cloned, expressed and purified as previously described.[1]
# (§3) Differential Scanning Fluorimetry (DSF)
# (§4) Thermal melting points were recorded using an Mx3005p Real Time PCR Machine (Stratagene).
# (§5) Subject proteins were buffered in 10 mM HEPES at pH 7.5, 500 mM NaCl and assayed in a 96-well […]
# (§6) plate at a final concentration of 2 μM in 20 μL volume. Compounds were then added to a final […]
# (§7) concentration of 10 μM. SPYRO Orange (Molecular Probes) was used as a fluorescent probe at a […]
# (§8) dilution of 1:1000. Excitation and emission filters for the SPYRO-Orange dye were set to 465 nm and […]
# (§9) 590 nm, respectively. The temperature was raised with a step of 3 °C/min from 25 °C to 96 °C and […]
# (§10) fluorescence readings were taken at each interval. Data was analysed as previously described.[2]
# (§11) Bromodomain affinity selectivity panel of (S)-11
# (§12) Supplemental Figure 1. DSF Selectivity panel of (S)-11 against 48 human Bromodomains. […]
# (§13) ┼Mean ΔTm ± SEM (number of measurements= 2). Compound concentration: 10 μM […]
# (§14) (1 picture or pasted object on this page, not shown here)
# [2] = molecular target: T2, GCN5L2 (Homo sapiens, UniProt Q92830); experiment: Differential scanning fluorimetry (DSF), GCN5 (GCN5L2) Brd; conditions: compound 10 μM; for ΔTm at 10 µM: read-out: GCN5L2 ΔTm (°C) (DSF)
# T2 construct: made in house
# T2 sequence (Q92830 728-832 limits assumed): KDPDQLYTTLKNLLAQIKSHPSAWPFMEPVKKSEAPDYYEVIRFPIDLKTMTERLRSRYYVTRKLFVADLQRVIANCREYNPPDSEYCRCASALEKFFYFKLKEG
# Experimental: as §1, §2, §3, §4, §5, §6, §7, §8, §9, §10, §11, §12, §13, §14
# [3] = molecular target: T1, PCAF Brd; experiment: Isothermal titration calorimetry (ITC), PCAF Brd
# Experimental: Isothermal Titration Calorimetry (ITC)
# Experiments were carried out on a Nano-ITC Standard Volume Instrument (TA Instruments). All experiments were carried out at 25 °C in 20 mM HEPES pH 7.5, 150 mM NaCl, 0.5 mM TCEP and 5% glycerol. Protein solutions were buffer exchanged by gel filtration. The titrations were conducted using an initial injection of 2 μL followed by 32 injections of 8 μL. Background dilution heat was substracted from each experiment. Thermodynamic parameters were calculated using ΔG = ΔH-T ΔS = -RTlnKB , where KD = 1/KB. ΔG, ΔH and ΔS are changes in free energy, enathalpy and entropy resepectively. Independent single site binding models were employed in data analysis.
# Supplemental Figure 3. ITC trace of D-Moses and PCAF Brd […]
# [4] = Table 1, read-out: K D [μM] (ITC) PCAF Brd
# [5] = Supplemental Table 3, compound concentration 30 μM, protein concentration 280-320 μM, read-out: PCAF KD (μM) (ITC)
# [6] = Table 2, read-out: K D (nM) (ITC) PCAF Brd
ΔT m [°C] PCAF (DSF) [1],ΔTm at 10 µM [2] [°C],ΔT m [°C] PCAF (DSF) ([1]; listed as (S)-17) [°C],"Kd [3, 4] [µM]","Kd [3, 5] [µM]","Kd [3, 6] [µM]",GCN5L2 ΔTm (°C) (DSF) [2],Compound
0 °C,0.2,,,,,,Cc1nnc2c3ccccc3c(Cl)nn12 [Compound 94]
0.65 °C,0.2,0.7,> 30,,,,C[C@@H](CN(C)C)Nc1nn2c(C(F)(F)F)nnc2c2ccccc12 [Compound (S)‐17]
,,,,> 30,,,Cc1nnc2c3ccccc3c(N[C@@H]3CCCN(C(=O)OCc4ccccc4)C3)nn12 [Compound 65]
10.3 °C,6.8,,,,0.179 ± 0.048,,COc1ccc([C@@H]([C@H](C)Nc2nn3c(C)nnc3c3ccccc23)N(C)C)cc1 [Compound 44]
1.0 °C,0,,,,,,Cc1nnc2c3ccccc3c(NC(CO)c3ccccc3)nn12 (stereo not shown) [Compound 51]
2.9 °C,1.1,,,1.13,,,Cc1nnc2c3ccccc3c(NCC3CCCCN3C)nn12 (stereo not shown) [Compound 60]
,,,> 30,,,,Cc1nnc2c3ccccc3c(NCCCN(C)C)nn12 [Compound 8]
7.3 °C,2.4,,,0.168,,,Cc1nnc2c3ccccc3c(N[C@H]3CCC[C@@H]3N(C)C)nn12 [Compound 76]
6.2 °C,2.7,,,,0.223 ± 0.078,,Cc1nnc2c3ccccc3c(N[C@@H](C)[C@H](c3ccc(Cl)cc3)N(C)C)nn12 [Compound 42]
0.3 °C,0.2,,,,,,Cc1nnc2c3ccccc3c(N[C@@H](C)[C@H](O)c3ccccc3)nn12 [Compound 77]
0.7 °C,0.3,,,0.321,,,Cc1nnc2c3ccccc3c(N[C@@H]3CCC[C@H]3N(C)C)nn12 [Compound 67]
1.1 °C,,,,> 30,,0.5,Cc1nnc2c3ccccc3c(N[C@@H]3CCCN(Cc4ccccc4)C3)nn12 [Compound 64]
3.7 °C,0.9,,,> 30,,,FC(F)(F)c1nnc2c3ccccc3c(NCc3ccccc3)nn12 [Compound 85]
0 °C,0,,> 30,,,,CCN(CC)CC(C)Nc1nn2c(C)nnc2c2ccccc12 (stereo not shown) [Compound 14]
0.9 °C and 0.85 °C,1.1,,> 30,,,,Cc1nnc2c3ccccc3c(NC(CC(C)C)CN(C)C)nn12 (stereo not shown) [Compound 13]
0.6 °C,,,,> 30,,0.1,Cc1nnc2c3ccccc3c(N[C@H]3CCCC[C@@H]3N(C)C)nn12 [Compound 66]
0.8 °C,0,,,> 30,,,CN(C)[C@H]1CCCC[C@@H]1Nc1nn2c(C(F)(F)F)nnc2c2ccccc12 [Compound 83]
0.9 °C,0.3,,> 30,,,,Cc1nnc2c3ccccc3c(NCCCCN(C)C)nn12 [Compound 9]
0.2 °C,0,,,,,,CCN1CCCCC1CNc1nn2c(C)nnc2c2ccccc12 (stereo not shown) [Compound 63]
0.7 °C,0.2,,,,,,Cc1nnc2c3ccccc3c(NCCN3CCOCC3)nn12 [Compound 98]
0.02 °C,,,,> 30,,0.2,CC(C)CC(CN(C)C)Nc1nn2c(C(F)(F)F)nnc2c2ccccc12 (stereo not shown) [Compound 86]
,,,,> 30,,,CN(C)CCNc1nn2c(C(F)(F)F)nnc2c2ccccc12 [Compound 87]
0.6 °C,0.1,,,> 30,,,Cc1nnc2c3ccccc3c(N[C@H]3CCCN(Cc4ccccc4)C3)nn12 [Compound 56]

ΔT m [°C] PCAF (DSF) [1],ΔTm at 10 µM [2] [°C],ΔT m [°C] PCAF (DSF) ([1]; listed as (S)-17) [°C],"Kd [3, 4] [µM]","Kd [3, 5] [µM]","Kd [3, 6] [µM]",GCN5L2 ΔTm (°C) (DSF) [2],Compound
0.2 °C,0.3,,,> 30,,,Cc1nnc2c3ccccc3c(N3CCN(CCN4CCCCC4)CC3)nn12 [Compound 62]
0.1 °C,0.1,,,> 30,,,CCN1CCCC1CNc1nn2c(C(F)(F)F)nnc2c2ccccc12 (stereo not shown) [Compound 91]
1.7 °C,,,1,,,,Cc1nnc2c3ccccc3c(NCC(c3ccccc3)N(C)C)nn12 (stereo not shown) [Compound 10]
1.0 °C,,,,,,0.3,Cc1nnc2c3ccccc3c(NCC(=O)c3ccccc3)nn12 [Compound 81]
0.4 °C,,,,> 30,,0.1,CCN(CC)CC(C)Nc1nn2c(C(F)(F)F)nnc2c2ccccc12 (stereo not shown) [Compound 90]
0.4 °C,,,,> 30,,0.1,CCC(CN(C)C)Nc1nn2c(C(F)(F)F)nnc2c2ccccc12 (stereo not shown) [Compound 88]
0.4 °C,0.2,,,> 30,,,Cc1nnc2c3ccccc3c(N3CCCC(N(C)C)C3)nn12 (stereo not shown) [Compound 75]
9.1 °C,7.2,,,,0.163 ± 0.117,,Cc1nnc2c3ccccc3c(N[C@@H](C)[C@H](c3ccc(C(F)(F)F)cc3)N(C)C)nn12 (relative stereo) [Compound 43]
,,,6.9 ± 1.4,,,,CCC(CNc1nn2c(C)nnc2c2ccccc12)N(C)C (stereo not shown) [Compound 16]
,,,,> 30,,,Cc1nnc2c3ccccc3c(NC(C)c3cnccn3)nn12 (stereo not shown) [Compound 72]
0.9 °C,0,,,> 30,,,Cc1nnc2c3ccccc3c(NCCN3CCN(C)CC3)nn12 [Compound 69]
5.6 °C,2.5,,0.3 ± 0.039,0.298,,,Cc1nnc2c3ccccc3c(NC(C)CN(C)C)nn12 (stereo not shown) [Compound 11]
3.3 °C,1.1,,1.8 ± 0.23,1.76,,,CCC(CN(C)C)Nc1nn2c(C)nnc2c2ccccc12 (stereo not shown) [Compound 12]
7.8 °C,4.3,,,,0.16 ± 0.054,,Cc1ccc([C@@H]([C@H](C)Nc2nn3c(C)nnc3c3ccccc23)N(C)C)cc1 (relative stereo) [Compound 41]
2.7 °C,0.4,,,,,,Cc1nnc2c3ccccc3c(NCC3COCCN3C)nn12 (stereo not shown) [Compound 58]
0.4 °C,,,,> 30,,0.2,CCC(CNc1nn2c(C(F)(F)F)nnc2c2ccccc12)N(C)C (stereo not shown) [Compound 89]
1.1 °C,0.1,,,,,,Cc1nnc2c3ccccc3c(NC3CCCN(C)C3=O)nn12 (stereo not shown) [Compound 50]
0.5 °C,,,,,,0,Cc1nnc2c3ccccc3c(N[C@H]3C[C@@H]4CC[C@H]3C4)nn12 [Compound 61]
3.7 °C,,,,4.3,,0.7,CC(=O)O.Cc1nnc2c3ccccc3c(NCCN3CCCC3)nn12 [Compound 59]
0 °C,0.1,,,> 30,,,Cc1nnc2c3ccccc3c(NC(C)CN3CCC(C)CC3)nn12 (stereo not shown) [Compound 70]
,,,,2.3,,,Cc1nnc2c3ccccc3c(NC(C)c3ccccn3)nn12 (stereo not shown) [Compound 71]
3.8 °C,1.5,,,,,,Cc1nnc2c3ccccc3c(NCC3CCCOC3)nn12 (stereo not shown) [Compound 99]

Compound,ΔT m [°C] PCAF (DSF) [1],ΔTm at 10 µM [2] [°C],ΔT m [°C] PCAF (DSF) ([1]; listed as (S)-17) [°C],"Kd [3, 4] [µM]","Kd [3, 5] [µM]","Kd [3, 6] [µM]",GCN5L2 ΔTm (°C) (DSF) [2]
Cc1nnc2c3ccccc3c(N3CCN4CCCCC4C3)nn12 (stereo not shown) [Compound 73],0.5 °C,,,,> 30,,0.2
